Measured values from patent US5958906A, “Phospholipid derivatives containing higher elements of the fifth main group” (ASTA-Medica Aktiengesellschaft, priority 1992, dated 1999).
≈ marks a conversion by molar mass, not a printed value. Structures can show the parent of a compound that is named as a salt.

Columns and labels:
[1] = test system: KB cells; test: Soft-Agar-Colony-Assay with KB cells in vitro; type: cell-based; conditions: colony formation inhibited up to 90%, effective criterion EC90 <10 μg/ml; for IC90: Homo sapiens
Protocol: Tests with KB cells were carried out as a Soft-Agar-Colony-Assay in accordance with Salmon and Hamburger, N. Engl.
(§1) Values exceeding 100 indicate tumor regressions in relation to the starting size of the tumor. […] Values below 0 indicate that the tumor growth was stimulated. KB in vivo represents a tumor model in which KB cells are transplanted subcutaneously into naked NMRI mice. DMBA in vivo represents a tumor model in which tumors of the milk inguinal were induced chemically in female test rats by administering Dimethylbenzanthracen (DMBA). EC90 values which exceed 10 are considered ineffective.

[2] = test system: tumors of the milk inguinal induced by Dimethylbenzanthracen (DMBA); test: DMBA in vivo: tumors of the milk inguinal induced chemically by Dimethylbenzanthracen, growth inhibition index; parameters: species or system female test rats; conditions: orally, >100 = tumor regression
Protocol: (§2) The substances were administered orally in solution with the help of an esophagus probe (respective dosages in parenthesis).
(§3) Indicated is the growth inhibition index (Wachstumshemmungsindex WHI) in percent which was reached and which can be calculated as follows: [formula] with WC =median tumor weight difference in the reference group based on day 0
(§4) Wt =corresponding value for the treated group
as §1

[3] = test system: Leishmania mexicana (promastigotes); test: Inhibiting effect on Leishmania mexicana (promastigotes); type: cell-based; conditions: partially mean values of two values
Protocol: Tests measuring the inhibiting effect on Leishmania mexicana (promastigotes) were conducted in accordance with the procedures set forth in R. F. Stieger et al., European Journal of Biochemistry, Vol.105 (1980), pp.163-175 and D. T. Hardt, and F. R. Opperdoes, Molecular and Biochemical Parasitology Vol. 113 (1984), pp. 159-172.
Inhibiting effect on Leishmania mexicana (promastigotes),
indicated as EC90 values (partially mean values of two values)

[4] = test system: KB cells; test: KB in vivo: KB cells transplanted subcutaneously into naked NMRI mice, growth inhibition index; conditions: orally, >100 = tumor regression
Protocol: as §2, §3, §4, §1

[5] = LD50 on single administration per os in the mouse; conditions: in vivo, po
[6] = test system: L1210-cell; test: L1210-cell culture experiment; type: cell-based; conditions: 90% growth inhibition in vitro vs control
Excerpt: The EC90 is the concentration of an anti-tumor substance in μg/ml which inhibits the growth of cancer cells by 90% in vitro compared to a control experiment without addition of the anti-tumor substance.

| Structure (SMILES) | IC90 [1] | EC90 (KB cells in vitro) [1] | other results |
| --- | --- | --- | --- |
| CCCCCCCC/C=C\CCCCCCCCCCCCOP(=O)([O-])OCC[P+](C)(C)C [Example 6, 2-[[(Cis-13-docosenyloxy) hydroxyphosphinyl]oxy]-P,P,P-trimethylethyl phosphonium inner salt] | > 10 µg/mL |  | WHI (DMBA in vivo), growth inhibition index ([2]; 4 × 147 mg/kg): 43.9% |
| CCCCCCCCCCCCCCCCCCOCC(COP(=O)([O-])OCC[P+](C)(C)C)OC (racemic) [Example 25] | 2.7 µg/mL (≈ 4.99 µM) |  | EC90 ([3]; Leishmania mexicana): 1.8 µg/mL; EC90 ([3]; Leishmania mexicana, molar): 3300 ± 370 nM |
| CCCCCCCCCCCCC1CCC(COP(=O)([O-])OCC[As+](C)(C)C)CC1 (stereo not drawn) [Example 23, 2-[[(4'-Dodecylcyclohexyl)methyloxy)hydroxyphosphinyl]oxy]As,As,As-trimethylethyl arsonium inner salt] |  | > 10 µg/mL |  |
| CCCCCCCCCCCCCCCCCCOP(=O)([O-])OCC[P+](CC)(CC)c1ccccc1 [Example 21, 2-[[(Octadecyloxy)hydroxyphosphinyl]oxy]-P,P-diethyl-P-phenyl-ethyl phosphonium inner salt] | 3.1 µg/mL |  |  |
| CCCCCCCCCCCCCCCCCCCOP(=O)([O-])OCC[P+](C)(C)C [Example 16, 3-[[(Nonadecyloxy)hydroxyphosphinyl]oxy]-P,P,P-trimethyl-ethyl phosphonium inner salt] | 2.6 µg/mL |  |  |
| CCCCCCCCCCCCCCCCOP(=O)([O-])OCC[As+](C)(C)C [Example 2, 2-[[(hexadecyloxy)hydroxyphosphinyl]oxy]-As,As,As-trimethyl ethyl arsonium inner salt] |  | 27 µg/mL |  |
| CCCCCCCCCCCCCCCCCCOP(=O)([O-])OCC[As+](CC)(CC)CC [Example 7, 2-[[(Octadecyloxy)hydroxyphosphinyl]oxy]-As,As,As-triethyl ethyl arsonium inner salt] |  | 3.0 µg/mL |  |
| CCCCCCCCCCCCCCCCCCOCC(COP(=O)([O-])OCC[As+](C)(C)C)OC (racemic) [Example 24, 1-0-Octadecyl-2-0-methyl-rac-glycerophosphoarsenocholine] |  | 2.8 µg/mL | WHI (DMBA in vivo), growth inhibition index ([2]; 4 × 100 mg/kg): 73%; EC90 inhibiting effect on Leishmania mexicana (promastigotes) [3]: 0.9 µg/mL; EC90 ([3]; molar): 1500 nM |
| CCCCCCCCCCCCCCCCCCOP(=O)([O-])OCCC[As+](C)(C)C [Example 10, 3-[[(Octadecyloxy)hydroxyphosphinyl]oxy]-As,As,As-trimethyl propylarsonium inner salt] |  | 5.8 µg/mL | WHI (KB in vivo), growth inhibition index ([4]; 2 × 316 mg/kg): 104% |
| CCCCCCCC/C=C\CCCCCCCCCCCCOP(=O)([O-])OCC[As+](CC)(CC)CC [Example 9, 2-[[Cis-13-docosenyloxy)hydroxyphosphinyl]oxy]-As,As,As-triethylethyl arsonium inner salt] |  | > 10 µg/mL |  |
| CCCCCCCCCCCCCCCCCCCOP(=O)([O-])OCC[As+](C)(C)C [Example 18, 2-[[(Nonadecyloxy)hydroxyphosphinyl]oxy]-As,As,As-trimethethyl arsonium inner salt] |  | 3.0 µg/mL |  |
| CCCCCCCC/C=C\CCCCCCCCCCCCOP(=O)([O-])OCC[P+](CC)(CC)c1ccccc1 [Example 22, 2-[[(Cis-13-docosenyloxy)hydroxyphosphinyl]oxy]-P,P-diethyl P-phenyl-ethyl phosphonium inner salt] | 3.1 µg/mL |  |  |
| CCCCCCCCCCCCCCCCOP(=O)([O-])OCC[As+](CC)(CC)CC [Example 8, 2-[[(Hexadecyloxy)hydroxyphosphinyl]oxy]-As,As,As-tri-ethyl ethyl arsonium inner salt] |  | > 10 µg/mL |  |
| CCCCCCCCCCCCCCCCCCCCOP(=O)([O-])OCC[As+](C)(C)C [Example 19, 2-[[(Eicosyloxy)hydroxyphosphinyl]oxy]-As,As,As-trimethylethyl arsonium inner salt] |  | insoluble |  |
| CCCCCCCC/C=C\CCCCCCCCCCCCOP(=O)([O-])OCCC[P+](C)(C)C [Example 13, 3-[[(Cis-13-docosenyloxy)hydroxyphosphinyl]oxy]-P,P,P-tri-methylpropyl phosphonium inner salt] | > 10 µg/mL |  |  |
| CCCCCCCCCCCCCCCCCCCCOP(=O)([O-])OCC[P+](C)(C)C [Example 17, 3-[[(Eicosyloxy)hydroxyphosphinyl]oxy]-P,P,P-trimethylethyl phosphonium inner salt] | 3 µg/mL |  |  |
| CCCCCCCC/C=C\CCCCCCCCCCCCOP(=O)([O-])OCC[As+](C)(C)C [Example 3, 2-[[(cis-13-docosenyloxy)hydroxyphosphinyl]oxy-As,As,As-trimethylethylarsoniuminner salt] |  | > 10 µg/mL | LD50 [5]: > 1470 mg/kg |
| CCCCCCCCCCCCCCCCCOP(=O)([O-])OCC[As+](C)(C)C [Example 20, 2-[[(Heptadecyloxy)hydroxyphosphinyl]oxy]-As,As,As-trimethylethyl arsonium inner salt] |  | 3.2 µg/mL |  |
| CCCCCCCCCCCCCCCCCCOP(=O)([O-])OCCC[P+](C)(C)C [Example 14, 3-[[(Octadecyloxy)hydroxyphosphinyl]oxy]-P,P,P-trimethylpropyl phosphonium inner salt] | 3 µg/mL |  |  |
| CCCCCCCCCCCCCCCCCCOP(=O)([O-])OCC[P+](C)(C)C [Example 4, 2-[[(octadecyloxy)hydroxyphosphinyl]oxy]-P,P,P-trimethyl ethyl phosphonium inner salt] | 3.1 µg/mL |  | WHI (KB in vivo), growth inhibition index ([4]; 2 × 316 mg/kg): 111%; WHI (DMBA in vivo), growth inhibition index ([2]; 4 × 147 mg/kg): 108.7%; EC90 ([3]; Leishmania mexicana): 0.8 µg/mL; EC90 ([3]; Leishmania mexicana, molar): 1800 ± 220 nM |
| CCCCCCCC/C=C\CCCCCCCCCCCCOP(=O)([O-])OCCC[As+](C)(C)C [Example 12, 3-[[(Cis-13-docosenyloxy)hydroxyphosphinyl]oxy]-As,As,As-trimethylpropyl arsonium inner salt] |  | > 10 µg/mL |  |
| CCCCCCCCCCCCCCCCOP(=O)([O-])OCCC[As+](C)(C)C [Example 11, 3-[[(Hexadecyloxy)hydroxyphosphinyl]oxy]-As,As,As-trimethyl propylarsonium inner salt] |  | > 10 µg/mL |  |
| CCCCCCCCCCCCCCCCOP(=O)([O-])OCCC[P+](C)(C)C [Example 15, 3-[[(Hexadecyloxy)hydroxyphosphinyl]oxy]-P,P,P-trimethylpropyl phosphonium inner salt] | > 10 µg/mL |  |  |
| CCCCCCCCCCCCCCCCCCOP(=O)([O-])OCC[As+](C)(C)C [Example 1, 2-[[(Octadecyloxy)hydroxyphosphenyl]oxy]-As,As,As-trimethyl ethyl arsonium inner salt] |  | 3.2 µg/mL | EC90 [6]: 2.9 µg/mL; WHI (KB in vivo), growth inhibition index ([4]; 1 × 511 mg/kg): 42.9%; WHI (DMBA in vivo), growth inhibition index ([2]; 4 × 100 mg/kg): 112.8%; EC90 inhibiting effect on Leishmania mexicana (promastigotes) [3]: 0.8 µg/mL; EC90 ([3]; molar): 1800 nM |
| CCCCCCCCCCCCCCCCOP(=O)([O-])OCC[P+](C)(C)C [Example 5, 2-[[(hexadecyloxy)hydroxyphosphinyl]oxy]-P,P,P-trimethyl ethyl phosphonium inner salt] | > 10 µg/mL |  |  |
